{"source": "patent US10240133B2", "about": "“ERK-derived peptides and uses thereof” (Yeda Research and Development Co. Ltd., priority 2013, dated 2019)", "tested_on": "breast, prostate and cervical cancer-derived cells", "experiment": "Proliferation assay (Methylene Blue)", "format": "cell-based", "conditions": "72 h after peptide administration, 10 μM", "method": "FIGS. 3A-3B illustrate that EPE peptide prevents proliferation of cancer but not normal cells. (A) Effect of the EPE peptide on the proliferation of various cell lines. Sixteen cancer and four “normal” immortalized cell lines were treated with either EPE or scrambled peptides as described above. Viable cells were assayed by Methylene Blue at 48 or 72 hours after cell seeding. The data from at least three independent experiments is presented as percent of the amount of viable cells/initial cell number, where initial cell number was considered as 100. (B) Comparison of the effects of the EPE-peptide and Raf inhibitor PLX4032 on cell viability. NHEM-Ad, LOXIMVI, A2352, Hela MDA-MB-231, and DU-145 cells were treated with EPE peptide, scrambled peptide, (10 μM), PLX4032 (1 μM), DMSO control, or no treatment at 1% FCS. The number of cells was detected as above. The graphs present the kinetic of cell growth at the indicated times. All experiments were repeated 3 times in triplicates.\nAll cells, except of MCF-10A, were seeded into 12-well cell plates in 1% FBS medium. MCF-10A cells were seeded in their complete medium diluted 5 fold. DMSO, Scr peptide, EPE peptide, or U0126 (final concentration of 10 μM each) were added to the appropriated wells four hours later. Every day medium was changed to fresh one containing the same agents. The number of viable cells was measured by Methylene Blue assay at 72 h after cell seeding. Shortly, cells were fixed with 4% Formaldehyde for 2 h at 23° C., washed once with 0.1M Borate Buffer pH 8.5 and stained with of 1% Methylene Blue in 0.1M Borate Buffer for 10 min. Color was extracted by adding 0.1 M HCl for 3 h at 23° C., and examined at 595 nm. For time course experiments, viable cells were measured at 0, 24, 48, 72 and 96 h after cell seeding. For dose response experiments we treaded the cells with 0.1, 1, 3, 10, or 30 μM of peptides for 72 h, as described above.", "data": [{"sequence": "GQLNHILGILGEPEQED (Synthetic peptide (EPE)) [EPE peptide, NTS-derived peptide with phosphomimetic EPE motif]", "values": [{"measurement": "proliferation (cell number)", "value": "prevented cell growth, but did not reduce the number of initial cells"}]}]}
